The results in this text go back to ChEMBL document CHEMBL4725408, “Antibacterial Spiropyrimidinetriones with N-Linked Azole Substituents on a Benzisoxazole Scaffold Targeting DNA Gyrase” (J Med Chem, 2020).

A short description of series [1]: Inhibition of recombinant Escherichia coli DNA gyrase AB expressed in Escherichia coli BL21 (DE3) using relaxed pJT519 DNA as substrate preincubated for 20 mins followed by 5'-BODIPY-TMR-TTCTTCTTCT addition and measured after 1 hr by fluorescence anisotropy.
Series [2] in a line: n-octanol/phosphate buffer partition coefficient, log D of the compound at pH 7.4 measured after 1 hr by UV-LC/MS based shake flask method. It is filed as physicochemical.
A short description of series [3]: Solubility of the compound by high throughput solubility assay. It is filed as physicochemical.
Series [4] is described as follows: Protein binding in human plasma assessed as unbound fraction at 10 uM measured after 16 hrs by LC-MS/MS based equilibrium dialysis method. Format: ADME, cell-free.
The test system of series [5] is Staphylococcus aureus. As to the kind of experiment: Antibacterial activity against methicillin sensitive Staphylococcus aureus ARC516 by broth microdilution method. It is filed as functional.
Series [6] relates to Staphylococcus aureus. As to the kind of experiment: Antibacterial activity against methicillin sensitive Staphylococcus aureus ARC516 in presence of human serum by broth microdilution method. It is filed as functional.
The test system of series [7] is Staphylococcus aureus. As to the kind of experiment: Antibacterial activity against methicillin/quinolone-resistant Staphylococcus aureus ARC517 by broth microdilution method. It is filed as functional.
In series [8] the test system is Escherichia coli. Put plainly: Antibacterial activity against Escherichia coli ARC523 by broth microdilution method. It is filed as functional.
For series [9], the system named is Streptococcus pneumoniae. As to the kind of experiment: Antibacterial activity against Streptococcus pneumoniae ARC548 by broth microdilution method. Format: functional.
Series [10] deals with Streptococcus pyogenes. As to the kind of experiment: Antibacterial activity against Streptococcus pyogenes ARC838 by broth microdilution method. It is filed as functional.
The subject of series [11] is Haemophilus influenzae. Put plainly: Antibacterial activity against Haemophilus influenzae ARC737 by broth microdilution method. Format: functional.
The test system of series [12] is L5178Y. Put plainly: Genotoxicity in mouse L5178Y cells using DAPI staining by microscopy based micronucleation assay. Format: toxicity, cell-based.

In brackets after ≈: the same amount, converted by molar mass.

As for `C[C@@H]1CN2c3c(cc4c(-n5ncnc5N5CCOCC5)noc4c3F)CC3(C(=O)NC(=O)NC3=O)[C@H]2[C@H](C)O1`, in series [1], the half-maximal inhibitory concentration (IC50) was 660 nM. Further, in series [2], the logD at 1 h turned out to be 1.6. In addition, the solubility in series [3] is over 1000 µM. Further, the fraction unbound at 16 h, 10 µM in series [4] worked out at 0.17. Moreover, the MIC amounted to 0.39 µM (≈ 0.211 µg/mL) in series [5]; 0.78 µM in [6]; 0.98 µM (≈ 0.53 µg/mL) in series [7]; 200 µM (≈ 108 µg/mL) in series [8]; 1.6 µM (≈ 0.865 µg/mL) in [9]; 0.78 µM (≈ 0.422 µg/mL) in series [10]. Also, the MIC in series [11] worked out at 1.6 µM (≈ 0.865 µg/mL).

On to `C[C@@H]1CN2c3c(cc4c(-n5ncnc5NC[C@@H](C)O)noc4c3F)CC3(C(=O)NC(=O)NC3=O)[C@H]2[C@H](C)O1`, for which the IC50 in series [1] turned out to be 160 nM. In addition, the logD at 1 h in [2] was determined as 1.9. In series [3], this molecule displayed a solubility of over 1000 µM. For the same molecule, the fraction unbound at 16 h, 10 µM in series [4] was 0.13. In addition, the MIC is 0.098 µM (≈ 0.0518 µg/mL) in series [5]; under 0.2 µM in series [6]; 0.63 µM (≈ 0.333 µg/mL) in series [7]; 25 µM (≈ 13.2 µg/mL) in [8]; under 0.2 µM in series [9]; under 0.2 µM in series [10]. Also, the MIC in [11] was 0.39 µM (≈ 0.206 µg/mL). Moreover, in series [12], the NOAEL turned out to be 12 µM.

`Cc1ncnn1-c1noc2c(F)c3c(cc12)CC1(C(=O)NC(=O)NC1=O)[C@H]1[C@H](C)O[C@H](C)CN31`: the IC50 in series [1] was 340 nM. Besides, the logD at 1 h in series [2] was 2.1. Moreover, the concentration in solution in series [3] (solubility) came to 22 µM (≈ 10.3 µg/mL). The fraction unbound at 16 h, 10 µM in series [4] is 0.098. The MIC was 0.2 µM (≈ 0.0939 µg/mL) in [5]; 0.39 µM in series [6]; 0.39 µM (≈ 0.183 µg/mL) in series [7]; 50 µM (≈ 23.5 µg/mL) in series [8]; 0.78 µM (≈ 0.366 µg/mL) in [9]; 0.55 µM (≈ 0.258 µg/mL) in series [10]. For the same molecule, in series [11], the MIC was determined as 1.6 µM (≈ 0.751 µg/mL).

With `C[C@@H]1CN2c3c(cc4c(-n5ncnc5N(C)C)noc4c3F)CC3(C(=O)NC(=O)NC3=O)[C@H]2[C@H](C)O1`, in [1], the IC50 is 670 nM. The molecule further yielded a logD at 1 h in series [2] of 1.7. The molecule also registered a solubility in series [3] of over 1000 µM. Also, the fraction unbound at 16 h, 10 µM in series [4] came to 0.13. In addition, the MIC in series [5] was determined as 0.39 µM (≈ 0.194 µg/mL); in series [6], 1.6 µM; in series [7], 0.78 µM (≈ 0.389 µg/mL); in series [8] it was 100 µM (≈ 49.8 µg/mL); in [9] it was 1.6 µM (≈ 0.798 µg/mL); in series [10], 0.78 µM (≈ 0.389 µg/mL). Moreover, the MIC in series [11] is 1.6 µM (≈ 0.798 µg/mL).

The molecule `CO/N=C1\CN(c2nc3c(cc2F)c(=O)c(C(=O)O)cn3C2CC2)CC1CN` (centres undefined) [GEMIFLOXACIN] yielded an NOAEL in series [12] of 3 µM.

On to `C[C@@H]1CN2c3c(cc4c(-n5ncnc5C#N)noc4c3F)CC3(C(=O)NC(=O)NC3=O)[C@H]2[C@H](C)O1`, for which, in series [1], the IC50 worked out at 320 nM. This molecule also yielded a logD at 1 h in series [2] of 2. In series [3], this molecule returned a solubility of 560 µM (≈ 269 µg/mL). Besides, in series [4], the fraction unbound at 16 h, 10 µM was found to be 0.076. The MIC in [5] is under 0.2 µM; in series [6] it was 0.39 µM; in [7] it was under 0.2 µM; in series [8] it was 6.2 µM (≈ 2.98 µg/mL); in [9], 0.39 µM (≈ 0.187 µg/mL); in [10], 0.39 µM (≈ 0.187 µg/mL). In series [11], this molecule had an MIC of 0.39 µM (≈ 0.187 µg/mL).

As for `C[C@H](O)CNc1ncnn1-c1noc2c(F)c3c(cc12)CC1(C(=O)NC(=O)NC1=O)[C@H]1[C@H](C)O[C@H](C)CN31`, the IC50 in series [1] was determined as 260 nM. The logD at 1 h in series [2] turned out to be 1.9. Moreover, the concentration in solution in series [3] (solubility) was 200 µM (≈ 106 µg/mL). Moreover, the fraction unbound at 16 h, 10 µM in series [4] was determined as 0.12. Also, the MIC is under 0.2 µM in series [5]; under 0.2 µM in [6]; 0.63 µM (≈ 0.333 µg/mL) in series [7]; 25 µM (≈ 13.2 µg/mL) in [8]; 0.19 µM (≈ 0.1 µg/mL) in series [9]; 0.19 µM (≈ 0.1 µg/mL) in series [10]. This molecule came in with an MIC in series [11] of 0.39 µM (≈ 0.206 µg/mL).

For the molecule `C[C@@H]1CN2c3c(cc4c(-n5ncnc5NCCO)noc4c3F)CC3(C(=O)NC(=O)NC3=O)[C@H]2[C@H](C)O1`, in series [1], the IC50 came out at 270 nM. Also, the pH-dependent lipophilicity (logD) at 1 h in series [2] was 1.6. The same molecule showed a solubility in [3] of 625 µM (≈ 322 µg/mL). Also, in [4], the fraction unbound at 16 h, 10 µM turned out to be 0.14. Besides, the MIC in series [5] was 0.39 µM (≈ 0.201 µg/mL); in [6], under 0.2 µM; in series [7] it was 0.78 µM (≈ 0.401 µg/mL); in series [8], 25 µM (≈ 12.9 µg/mL); in series [9], 0.39 µM (≈ 0.201 µg/mL); in [10], 0.39 µM (≈ 0.201 µg/mL). Also, in [11], the MIC was 0.39 µM (≈ 0.201 µg/mL).
